Measurements as given in US20250382332A1, “NOVEL ALPHA-FACTOR BASED PEPTIDES WITH ANTIFUNGAL ACTIVITY” (INVAIO SCIENCES, INC., priority 2024, published 2025).
Peptide text beside a SMILES is read from it.

System: Botrytis cinerea (B05.10)
Assay: Resazurin antifungal assay of 180 alpha-factor peptide variants towards Botrytis (Example 2)
Type: cell-based
Details: % inhibition of fungal growth, Botrytis conidia, resazurin; for Inhibition at 10 μM: peptide 10 μM; for Inhibition at 20 μM: peptide 20 μM; for Inhibition at 50 μM: peptide 50 μM; for Inhibition at 100 μM: peptide 100 μM
Outline: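 B. cinerea B05.10 conidia (5000/well) were exposed to peptides at 100, 50, 20, 15 and 10 μM final for 24 h at 20° C. Resazurin was then added and fluorescence read at 570/620 nm. Percent growth inhibition was calculated against conidia-only wells, with four technical replicates.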

Row | Compound | Inhibition at 10 μM | Inhibition at 20 μM | Inhibition at 50 μM | Inhibition at 100 μM | Inhibition at 15 μM (peptide 15 μM)
1 | CSCC[C@H](NC(=O)[C@@H]1CCCN1C(=O)[C@H](CCC(N)=O)NC(=O)CNC(=O)[C@@H]1CCCN1C(=O)[C@H](CCCCN)NC(=O)[C@H](CC(C)C)NC(=O)[C@@H](NC(=O)[C@H](CC(C)C)NC(=O)[C@H](Cc1ccc(O)cc1)NC(=O)[C@H](Cc1c[nH]cn1)NC(=O)[C@@H](N)CCCCN)[C@@H](C)O)C(=O)N[C@@H](Cc1ccc(O)cc1)C(=O)O [compound 102] (H-KHYLTLKPGQPMY-OH; N-terminus and C-terminus assumed) | <90% | <90% | <90% | 98.51% | 
2 | CSCC[C@H](NC(=O)CNC(=O)[C@H](CO)NC(=O)CNC(=O)[C@@H]1CCCN1C(=O)[C@H](CCCCN)NC(=O)[C@H](CC(C)C)NC(=O)[C@H](CCCNC(=N)N)NC(=O)[C@H](CC(C)C)NC(=O)[C@H](Cc1ccc(O)cc1)NC(=O)[C@H](CCCNC(=N)N)NC(=O)[C@@H](N)Cc1c[nH]c2ccccc12)C(=O)N[C@@H](Cc1ccc(O)cc1)C(=O)O [compound 55] (H-WRYLRLKPGSGMY-OH; N-terminus and C-terminus assumed) | <90% | 99.43% | 100% | 100% | <90%
3 | CSCC[C@H](NC(=O)[C@@H]1CCCN1C(=O)[C@H](CCC(N)=O)NC(=O)CNC(=O)[C@@H]1CCCN1C(=O)[C@H](Cc1c[nH]c2ccccc12)NC(=O)[C@H](CC(C)C)NC(=O)[C@H](CCCCN)NC(=O)[C@H](CC(C)C)NC(=O)[C@H](Cc1ccccc1)NC(=O)[C@H](Cc1c[nH]cn1)NC(=O)[C@@H](N)CCCCN)C(=O)N[C@@H](Cc1ccc(O)cc1)C(=O)O [compound 17] (H-KHFLKLWPGQPMY-OH; N-terminus and C-terminus assumed) | <90% | <90% | 100% | 100% | 
4 | CSCC[C@H](NC(=O)[C@H](Cc1c[nH]cn1)NC(=O)[C@@H](N)Cc1c[nH]c2ccccc12)C(=O)NCC(=O)N[C@@H](CCC(N)=O)C(=O)N[C@@H](CC(C)C)C(=O)N[C@@H](CCCCN)C(=O)N1CCC[C@H]1C(=O)NCC(=O)N[C@@H](CCC(=O)O)C(=O)N1CCC[C@H]1C(=O)N[C@@H](CCSC)C(=O)N[C@@H](Cc1ccc(O)cc1)C(=O)O [compound 137] (H-WHMGQLKPGEPMY-OH; N-terminus and C-terminus assumed) |  |  | <90% | <90% | 
5 | CSCC[C@H](NC(=O)[C@@H]1CCCN1C(=O)[C@H](CCC(N)=O)NC(=O)CNC(=O)[C@@H](NC(=O)[C@H](CC(N)=O)NC(=O)[C@H](CC(C)C)NC(=O)[C@H](CO)NC(=O)[C@H](CC(C)C)NC(=O)[C@H](Cc1c[nH]c2ccccc12)NC(=O)[C@H](Cc1c[nH]cn1)NC(=O)[C@@H](N)Cc1c[nH]c2ccccc12)[C@@H](C)O)C(=O)N[C@@H](Cc1ccc(O)cc1)C(=O)O [compound 46] (H-WHWLSLNTGQPMY-OH; N-terminus and C-terminus assumed) |  |  | <90% | 97.03% | 
6 | CC[C@H](C)[C@H](NC(=O)[C@H](CCCCN)NC(=O)[C@H](CC(C)C)NC(=O)[C@H](C)NC(=O)[C@H](CC(C)C)NC(=O)[C@H](CC(=O)O)NC(=O)[C@H](Cc1c[nH]cn1)NC(=O)[C@@H](N)CCCCN)C(=O)NCC(=O)N[C@@H](CCC(N)=O)C(=O)N1CCC[C@H]1C(=O)N[C@@H](CCSC)C(=O)N[C@@H](Cc1ccc(O)cc1)C(=O)O [compound 180] (H-KHDLALKIGQPMY-OH; N-terminus and C-terminus assumed) |  |  | <90% | <90% | 
7 | CC[C@H](C)[C@H](NC(=O)CNC(=O)[C@H](CCCNC(=N)N)NC(=O)[C@@H](N)CCCCN)C(=O)N[C@@H](CC(N)=O)C(=O)N[C@@H](CC(C)C)C(=O)N[C@@H](CCCCN)C(=O)N1CCC[C@H]1C(=O)NCC(=O)N[C@@H](CCC(N)=O)C(=O)N1CCC[C@H]1C(=O)N[C@@H](CCSC)C(=O)N[C@@H](Cc1ccc(O)cc1)C(=O)O [compound 104] (H-KRGINLKPGQPMY-OH; N-terminus and C-terminus assumed) | <90% | <90% | <90% | 99.59% | 
8 | CC[C@H](C)[C@H](NC(=O)[C@H](CCCCN)NC(=O)[C@H](CC(C)C)NC(=O)[C@H](CCC(N)=O)NC(=O)[C@H](CC(C)C)NC(=O)[C@@H](NC(=O)[C@H](CCCCN)NC(=O)[C@@H](N)Cc1c[nH]c2ccccc12)[C@@H](C)O)C(=O)NCC(=O)N[C@@H](C)C(=O)N1CCC[C@H]1C(=O)N[C@@H](CCSC)C(=O)N[C@@H](Cc1ccc(O)cc1)C(=O)O [compound 60] (H-WKTLQLKIGAPMY-OH; N-terminus and C-terminus assumed) | <90% | <90% | 100% | 100% | 
9 | CSCC[C@H](NC(=O)[C@@H]1CCCN1C(=O)[C@H](CCC(N)=O)NC(=O)CNC(=O)[C@H](CC(N)=O)NC(=O)[C@H](CCCCN)NC(=O)[C@H](Cc1ccccc1)NC(=O)[C@H](CC(N)=O)NC(=O)[C@H](CC(C)C)NC(=O)[C@H](Cc1c[nH]c2ccccc12)NC(=O)[C@H](CCC(=O)O)NC(=O)[C@@H](N)CCCCN)C(=O)N[C@@H](Cc1ccc(O)cc1)C(=O)O [compound 145] (H-KEWLNFKNGQPMY-OH; N-terminus and C-terminus assumed) |  |  | <90% | <90% | 
10 | CSCC[C@H](NC(=O)[C@@H]1CCCN1C(=O)[C@H](CCC(N)=O)NC(=O)CNC(=O)[C@@H](NC(=O)[C@H](CCC(N)=O)NC(=O)[C@H](Cc1ccccc1)NC(=O)[C@H](CC(N)=O)NC(=O)CNC(=O)[C@H](Cc1c[nH]c2ccccc12)NC(=O)[C@H](Cc1c[nH]cn1)NC(=O)[C@@H](N)Cc1c[nH]c2ccccc12)[C@@H](C)O)C(=O)N[C@@H](Cc1ccc(O)cc1)C(=O)O [compound 157] (H-WHWGNFQTGQPMY-OH; N-terminus and C-terminus assumed) |  |  | <90% | 97.14% | 
11 | CSCC[C@H](NC(=O)[C@@H]1CCCN1C(=O)[C@H](CCC(N)=O)NC(=O)CNC(=O)[C@@H]1CCCN1C(=O)[C@H](CCCCN)NC(=O)[C@H](CC(C)C)NC(=O)[C@H](CCC(N)=O)NC(=O)CNC(=O)[C@H](CO)NC(=O)[C@H](CCC(N)=O)NC(=O)[C@@H](N)Cc1c[nH]c2ccccc12)C(=O)N[C@@H](Cc1ccc(O)cc1)C(=O)O [compound 117] (H-WQSGQLKPGQPMY-OH; N-terminus and C-terminus assumed) |  |  | <90% | <90% | 
12 | CSCC[C@H](NC(=O)[C@@H]1CCCN1C(=O)[C@H](CCC(N)=O)NC(=O)CNC(=O)[C@H](CO)NC(=O)[C@H](CCCCN)NC(=O)[C@H](CC(C)C)NC(=O)[C@H](CC(N)=O)NC(=O)[C@H](CC(C)C)NC(=O)[C@H](Cc1ccccc1)NC(=O)[C@H](Cc1c[nH]cn1)NC(=O)[C@@H](N)CCCCN)C(=O)N[C@@H](Cc1ccc(O)cc1)C(=O)O [compound 27] (H-KHFLNLKSGQPMY-OH; N-terminus and C-terminus assumed) |  |  | 90.58% | 100% | 
13 | CSCC[C@H](NC(=O)[C@H](CO)NC(=O)[C@H](CCC(N)=O)NC(=O)CNC(=O)[C@@H]1CCCN1C(=O)[C@H](CCCCN)NC(=O)[C@H](Cc1ccccc1)NC(=O)[C@H](CCC(N)=O)NC(=O)[C@H](CC(C)C)NC(=O)CNC(=O)[C@@H](NC(=O)[C@@H]1CCCN1)[C@@H](C)O)C(=O)N[C@@H](Cc1ccc(O)cc1)C(=O)O [compound 45] (H-PTGLQFKPGQSMY-OH; N-terminus and C-terminus assumed) |  |  | <90% | <90% | 
14 | CSCC[C@H](NC(=O)[C@@H]1CCCN1C(=O)[C@H](CCC(=O)O)NC(=O)CNC(=O)[C@@H]1CCCN1C(=O)[C@H](CCCCN)NC(=O)[C@H](Cc1ccccc1)NC(=O)[C@H](CCC(N)=O)NC(=O)CNC(=O)[C@H](Cc1c[nH]c2ccccc12)NC(=O)[C@H](CCCNC(=N)N)NC(=O)[C@@H](N)Cc1c[nH]c2ccccc12)C(=O)N[C@@H](Cc1ccc(O)cc1)C(=O)O [compound 33] (H-WRWGQFKPGEPMY-OH; N-terminus and C-terminus assumed) |  |  | <90% | <90% | 
15 | CSCC[C@H](NC(=O)[C@@H]1CCCN1C(=O)[C@H](CCC(N)=O)NC(=O)CNC(=O)[C@@H]1CCCN1C(=O)[C@H](CCCCN)NC(=O)[C@H](Cc1ccccc1)NC(=O)[C@H](CCCCN)NC(=O)[C@H](CC(C)C)NC(=O)[C@H](CC(=O)O)NC(=O)[C@H](Cc1c[nH]cn1)NC(=O)[C@@H](N)CCCCN)C(=O)N[C@@H](Cc1ccc(O)cc1)C(=O)O [compound 116] (H-KHDLKFKPGQPMY-OH; N-terminus and C-terminus assumed) |  |  | <90% | 93.51% | 
16 | CSCC[C@H](NC(=O)[C@H](Cc1c[nH]cn1)NC(=O)[C@@H]1CCCN1)C(=O)N[C@H](C(=O)N[C@@H](CCCNC(=N)N)C(=O)N[C@@H](CC(C)C)C(=O)N[C@@H](CCCCN)C(=O)N1CCC[C@H]1C(=O)NCC(=O)N[C@@H](CCC(N)=O)C(=O)N1CCC[C@H]1C(=O)N[C@@H](CCSC)C(=O)N[C@@H](Cc1ccc(O)cc1)C(=O)O)C(C)C [compound 132] (H-PHMVRLKPGQPMY-OH; N-terminus and C-terminus assumed) |  |  | <90% | 94.13% | 
